Data set [1] addresses T1, human TRPV1 (Homo sapiens (Human), UniProt Q8NER1). In words: Human TRPV1 heat-based assay (hHeat-CHO). The class given is cell-based. The settings on record: hTRPV1/CHO cells, temperature ramp 25° C. to 45° C.; mean ± SEM (number of trials); read-out: TRPV1 IC50 Potency, Human Heat CHO (hHeat-CHO). The protocol:
Human TRPV1 Heat-Based Assay:
CHO cells stably expressing human TRPV1 (hTRPV1) were used. Functional assessment of heat-induced activation of hTRPV1 was carried out in a cell-based Ca^2+ flux assay using ABI7500 Fast Real-Time PCR System as described in Reubish et al., “Functional assessment of temperature-gated ion-channel activity using a real-time PCR machine,” www.BioTechniques.com 47(3):iii-ix (2009), which is hereby incorporated by reference. Briefly, hTRPV1/CHO cells were cultured in growth media in a tissue culture dish at 37° C. in a CO2 incubator. On the day of the assay, culture media were removed and the cells were then detached using 0.05% trypsin at 37° C. with 5% CO2, for 90 s. The detached cells were centrifuged (1000 rpm, 4 min) to remove trypsin-containing supernatant and resuspended in assay buffer (115 mM NaCl, 5.4 mM KCl, 0.8 mM MgCl2.6H2O, 1.8 mM CaCl2.2H2O, 13.8 mM D-glucose, and 20 mM HEPES). Then, the cells were loaded with 5 μM Fluo-4, a Ca^2+ reporter dye, in the presence of 2.5 mM probenecid at 37° C. with 5% CO2, for 45 min. Thereafter, the cells were washed twice with measuring buffer (assay buffer supplemented with 0.1% BSA and 3.2 mM CaCl2) then transferred to a Fast 96-well Reaction Plate (0.1 mL) (Part no. 4346907, MICROAMP, Applied Biosystems, Foster City, Calif.). The cell density was 100,000 cells/24 μL/well. A solution of the compound under test (6 μL/well) was added into each well of the 96-well plate. Thus, the reaction volume per well was 30 μL.
The plates were then placed inside an ABI7500 Fast Real-Time PCR instrument (Applied Biosystems) to read fluorescence at different temperatures using 7500 software, version 2.0.2 (Applied Biosystems). The initial temperature was set at 25° C. for 1 min. followed by a temperature ramp to 45° C. in 100 s to deliver heat to cells. [Ca^2+]i response of hTRPV1/CHO cells to heat was determined as: [fluorescence read at 45° C.−fluorescence read at 25° C.].
Compound concentration response curves and IC50 values were analyzed using GraphPad Prism 4 software (GraphPad Software, La Jolla, Calif.).
(§1) The IC50 data provided in Table 10 are shown as mean±standard error of the mean; the number of trials conducted for each assay is shown in parentheses except for only a single trial where no number of trials is shown in parentheses.

Data set [2] addresses T1, human TRPV1. As to the kind of experiment: Capsaicin-based assay, Protocol 2 (hCAP-CHO). The format is cell-based. On the procedure: (§2) For Protocol 2, a Chinese Hamster Ovary cell line (CHO) that has been engineered to constitutively express human recombinant TRPV1 was used (TRPV1/CHO cells). The TRPV1/CHO cell line was generated as described below.
One day prior to assay, TRPV1/CHO cells were seeded in 96-well clear-bottom black plates (20,000 cells/well) in growth media. On the day of the experiment, the cells were washed with 0.2 mL 1× Hank's Balanced Salt Solution (Life Technologies) containing 1.6 mM CaCl2 and 20 mM HEPES, pH 7.4 (“wash buffer”). Subsequently, the cells were loaded by incubation in 0.1 mL of wash buffer containing Fluo-4 at 3 μM final concentration. After 1 hour, the cells were washed twice with 0.2 mL wash buffer and resuspended in 0.1 mL wash buffer. The plates were then transferred to a Fluorescence Imaging Plate Reader (Molecular Devices). Fluorescence intensity was monitored for 15 seconds to establish a baseline. Subsequently, test compounds diluted in assay buffer (lx Hank's Balanced Salt Solution containing 1 mM CaCl2 and 20 mM HEPES, pH 7.4) containing 1% DMSO were added to the cell plate and fluorescence was monitored for 2 minutes. […] Human TRPV1 was then activated by the addition of 50 μL capsaicin (100 nM final concentration) and plates incubated for an additional 3 min. Data were collected over the entire time course and analyzed using Excel and the curve-fitting formula GraphPad Prism.
as §1

Data set [3] addresses T1, human TRPV1. As to the kind of experiment: pH-based assay, Protocol 2 (hpH-CHO). The class given is cell-based. Particulars: read-out: TRPV1 IC50 Potency, Human pH CHO (hpH-CHO). On the procedure: as §2
TRPV1/CHO cells were seeded in the 96-well clear-bottom black-wall plate (Nunc) at densities of 1-2×10^4 cells/well and grown in 100 μL of culture medium (alpha-MEM supplemented with 10% FBS, 20 mM HEPES, 1 mg/mL geneticin and 1% antibiotic-antimycotic mixed stock solution) for 1-2 days before the experiment.
For the first half of a 96-well plate one agonist solution was used; for the second half the other agonist solution was used. The agonist solutions were obtained by diluting sulfuric acid (1M H2SO4) with measuring buffer. The concentrations for the two agonist solutions were determined as described above in Section 2 of Protocol 2.
The sulfuric acid concentrations between the two agonist solutions differed by 0.5 mM. […] After 1:4 dilution of the agonist solutions, the final sulfuric acid concentration was 3.2 mM and 3.3 mM, respectively. The resulting pH value for the pH assay was 5.0 to 5.1.
Test compounds were dissolved in DMSO to yield 1 mM stock solutions. […] The thereby-obtained solutions were further diluted in measuring buffer (1:100) as 10× stock serial dilutions with a DMSO concentration of 1%. 10 μL of a 10× stock was added into each well of an “antagonist plate” (see step 3.3.(4) below).
Steps (1) and (2) of this Assay were the same as steps 2.2.(1) and 2.2.(2), respectively, of Protocol 2.
(3) The cells were washed twice with 150 μL of measuring buffer (mentioned in step 2.2.(3) of Protocol 2, no probenecid). The wells were subsequently refilled with 70 μL of measuring buffer.
(4) Either 10 μL of measuring buffer or 10 μL of 10× stock serial dilution of test compound (described in step 3.2. above) were applied to each well. Usually, only one test compound was tested per 96-well plate. The number of replicates per 96-well plate for a particular antagonist at a particular concentration was 2×7 since, as described for the “agonist plate,” two different sulfuric acid concentrations were used per 96-well plate and seven lanes (A-C, E-H) per 96-well plate were used (N=2×7).
(6) Fura-2 fluorescent intensity was monitored as described in step 2.2.(5) above. After 16 time points of baseline detection, 20 μL of agonist solution (measuring buffer titrated with H2SO4 to yield a pH in the range of from about 5.0 to about 5.1 when mixed 1:4 with the measuring buffer containing test compound) was added to each well (final volume 100 μL/well).
Steps (7) and (8) were as described in steps 2.2.(6) and 2.2.(7) above, respectively.
as §1

A short description of data set [4]: In vivo assay of body temperature increase. Also on record: species or system rat. The settings on record: rats, oral, 1 mg/mL at 10 mL/kg once; greatest ΔTb versus control at 0.5, 1 or 2 hrs after administration; rectal temperature. An excerpt: Selection of rats (Crl/SD rats, 7 weeks, male) was based on rectal body temperature measured during the morning of the day of dosing as described below. In addition, to minimize spontaneous, stress-induced increases in body temperature, rats were acclimated in advance to both the rectal measurement procedure and to being handled and dosed. All lodging and testing took place in animal care laboratories with constant room temperature and humidity. The rats were free to move and ingest food and water throughout. Each rat was coded with a colored line on the tail, housed in a separate cage, and permitted the normal range of movement. Immediately before each body temperature measurement, a rat was transferred to a measurement cage. To reduce stress which could influence its body temperature, each rat was covered with towels during the measurement. A thermistor probe was then carefully inserted into the rectum of each rat and left in place until the temperature reading on the digital display had stabilized; this value was recorded.
On the day before dosing, rectal body temperature was measured at 9:00, 10:00, 11:00, 12:30, 13:30, 14:30, and 15:30 o'clock to familiarize the rats with the measurement procedure prior to administration of the test or control treatments. The rats were also dosed by oral gavage without vehicle at 12:30 o'clock to acclimate and familiarize them with the handling and dosing procedure.
On the day of dosing, only rats with rectal body temperatures within the range of from 37.0° C. to 37.7° C. were selected for study. Rectal body temperatures were measured at 9:00, 10:00, and 11:00 o'clock. […] Rectal body temperatures of the selected rats were measured again at 12:30 o'clock and any rat with a rectal body temperature of 38.0° C. or greater was also excluded from the study.
Following assignment to either a test or control group, a test compound or a control was administered to the rats. […] Rectal body temperatures were measured at the following time points: 0.5, 1, and 2 hrs after administration. […]

The mark [5] stands for this setting: TRPV1/CHO cells, 100 nM capsaicin, mean ± SEM (number of trials), read-out: TRPV1 IC50 Potency, Human Capsaicin CHO (hCAP-CHO).
[6] abbreviates: TRPV1/CHO cells, pH 5.0-5.1, mean ± SEM (number of trials).
Setting [7] is: prepared and evaluated according to the methods described in WO2005/030766.

Structures are written as SMILES. A value given as a limit tells only on which side of the number the result lay.

As usually defined, the IC50 is the point on the concentration scale where inhibition reaches its midpoint.

T1 sequence (Q8NER1 whole entry, looked up): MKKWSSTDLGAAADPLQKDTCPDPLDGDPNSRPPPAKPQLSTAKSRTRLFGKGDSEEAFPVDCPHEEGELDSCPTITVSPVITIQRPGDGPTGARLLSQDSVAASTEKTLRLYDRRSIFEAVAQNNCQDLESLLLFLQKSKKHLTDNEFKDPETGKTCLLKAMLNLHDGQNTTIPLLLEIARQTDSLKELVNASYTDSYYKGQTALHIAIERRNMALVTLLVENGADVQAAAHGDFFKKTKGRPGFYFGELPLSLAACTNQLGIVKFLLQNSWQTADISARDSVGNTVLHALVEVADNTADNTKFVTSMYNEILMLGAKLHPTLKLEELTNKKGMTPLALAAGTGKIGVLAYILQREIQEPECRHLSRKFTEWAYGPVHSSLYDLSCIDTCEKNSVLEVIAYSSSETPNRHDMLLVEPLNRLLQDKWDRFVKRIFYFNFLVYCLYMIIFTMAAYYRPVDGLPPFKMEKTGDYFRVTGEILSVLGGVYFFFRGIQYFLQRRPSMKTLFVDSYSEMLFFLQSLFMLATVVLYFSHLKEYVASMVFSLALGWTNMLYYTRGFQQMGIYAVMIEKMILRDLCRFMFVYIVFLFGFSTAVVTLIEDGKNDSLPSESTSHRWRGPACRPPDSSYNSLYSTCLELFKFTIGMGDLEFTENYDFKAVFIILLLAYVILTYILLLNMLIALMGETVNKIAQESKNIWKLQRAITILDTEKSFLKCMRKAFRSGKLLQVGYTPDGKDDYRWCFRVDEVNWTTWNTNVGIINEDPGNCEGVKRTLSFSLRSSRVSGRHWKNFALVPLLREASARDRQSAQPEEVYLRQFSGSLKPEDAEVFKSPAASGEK

Take `Cc1ccc2nc(NC(=O)c3ccc(-c4ncc(C[C@@H](O)CO)cc4F)cc3)sc2c1` [Compound G159a, (R)-4-[5-(2,3-dihydroxypropyl)-3-fluoropyridin-2-yl]-N-(6-methylbenzo[d]thiazol-2-yl)benzamide]: the figures for the IC50 on human TRPV1 [1], on human TRPV1 [2] (setting [5]) and on human TRPV1 [3] (setting [6]) were 879 ± 13 nM, 29.6 ± 7.9 nM and 13.7 ± 0.2 nM, respectively.
Turning to `O=C(Nc1nc2ccc(Cl)cc2s1)c1ccc(-c2ncc(C[C@@H](O)CO)cc2F)cc1` [Compound G156a, (R)—N-(6-chlorobenzo[d]thiazol-2-yl)-4-[5-(2,3-dihydroxypropyl)-3-fluoropyridin-2-yl]benzamide], the IC50 on human TRPV1 [1] is greater than 10000 nM; at human TRPV1 [2] (setting [5]), 28.7 ± 6.8 nM; on human TRPV1 [3] (setting [6]), 18.8 ± 1.8 nM.
For `C[C@H](O)[C@@H](O)c1cnc(N2CCN(C(=O)Nc3nc4ccc(F)cc4s3)[C@H](C)C2)c(Cl)c1` [BA], the “Body Temperature Increase ΔTb” value in data set [4] stood at 0.9 °C.
For `C[C@H](O)[C@@H](O)c1cnc(N2CCN(C(=O)Nc3nc4ccc(F)cc4s3)[C@H](C)C2)c(F)c1` [BC], in data set [4], the “Body Temperature Increase ΔTb” value stood at 0.7 °C.
For `O=C(Nc1nc2ccc(F)cc2s1)c1ccc(-c2ncc(C[C@@H](O)CO)cc2F)cc1` [Compound G158a, (R)-4-[5-(2,3-dihydroxypropyl)-3-fluoropyridin-2-yl]-N-(6-fluorobenzo[d]thiazol-2-yl)benzamide], the 50% inhibitory concentration (IC50) on human TRPV1 [1] came out at 598 ± 296 nM; on human TRPV1 [2] (setting [5]) it was 77 ± 29 nM; on human TRPV1 [3] (setting [6]), 23.1 ± 3.1 nM.
Turning to `Cc1cccnc1-c1ccc(C(=O)Nc2nc3ccc(F)cc3s2)cc1` [Compound B, reference compound], the values for the IC50 against human TRPV1 [2] and on human TRPV1 [3] (setting [7]) were 1140 ± 270 nM and greater than 25000 nM, respectively.
For `O=C(Nc1nc2ccccc2s1)c1ccc(-c2ncc(C[C@H](O)CO)cc2F)cc1` [Compound G155b, (S)—N-(benzo[d]thiazol-2-yl)-4-[5-(2,3-dihydroxypropyl)-3-fluoropyridin-2-yl]benzamide], the figures for the IC50 at human TRPV1 [1], at human TRPV1 [2] (setting [5]) and at human TRPV1 [3] (setting [6]) were 580 nM, 116 ± 9.6 nM and 45 ± 3.3 nM, respectively.
As for `Cc1cccnc1-c1ccc(C(=O)Nc2nc3ccc(Cl)cc3s2)cc1` [A, reference compound], the IC50 at human TRPV1 [2] and on human TRPV1 [3] (setting [7]) was greater than 25000 nM throughout.
For the compound `Cc1cc2nc(NC(=O)c3ccc(-c4ncc(C[C@@H](O)CO)cc4F)cc3)sc2cc1C` [Compound G215a, (R)-4-[5-(2,3-dihydroxypropyl)-3-fluoropyridin-2-yl]-N-(5,6-dimethylbenzo[d]thiazol-2-yl)benzamide], the results for the half-maximal inhibitory concentration (IC50) on human TRPV1 [2] (setting [5]) and at human TRPV1 [3] (setting [6]) were 219 ± 58 nM and 105 ± 14 nM, respectively.
For `O=C(Nc1nc2ccccc2s1)c1ccc(-c2ncc(C[C@@H](O)CO)cc2F)cc1` [Compound G155a, (R)—N-(benzo[d]thiazol-2-yl)-4-[5-(2,3-dihydroxypropyl)-3-fluoropyridin-2-yl]benzamide], the values for the 50% inhibitory concentration (IC50) at human TRPV1 [1], on human TRPV1 [2] (setting [5]) and on human TRPV1 [3] (setting [6]) were 307 ± 10 nM, 31.9 ± 7.6 nM and 44.3 ± 6.2 nM, respectively.
As for `C[C@H](O)[C@@H](O)c1cnc(N2CCN(C(=O)Nc3nc4ccc(F)cc4s3)[C@@H](C)C2)c(F)c1` [BB], the “Body Temperature Increase ΔTb” value in data set [4] stood at 0.5 °C.

These data come from US9394293B2, “TRPV1 antagonists including dihydroxy substituent and uses thereof” (Purdue Pharma L.P., priority 2011, dated 2016).
